In the NIST ThermoML archive (doi:10.1021/acs.jced.5b00776):
Numbers after ± are expanded uncertainties.

Details: Wilhelmi plate

SMILES: O [water]
- surface tension liquid-gas (272.64 K, Metastable liquid): 75.78 ± 0.03 mN/m
- surface tension liquid-gas (273.04 K, Metastable liquid): 75.71 ± 0.03 mN/m
- surface tension liquid-gas (275.06 K, Liquid): 75.41 ± 0.03 mN/m
- surface tension liquid-gas (276.72 K, Liquid): 75.17 ± 0.03 mN/m
- surface tension liquid-gas (280.09 K, Liquid): 74.69 ± 0.03 mN/m
- surface tension liquid-gas (280.34 K, Liquid): 74.65 ± 0.03 mN/m
- surface tension liquid-gas (283.27 K, Liquid): 74.23 ± 0.03 mN/m
- surface tension liquid-gas (286.54 K, Liquid): 73.74 ± 0.03 mN/m
- surface tension liquid-gas (288.33 K, Liquid): 73.46 ± 0.03 mN/m
- surface tension liquid-gas (290.57 K, Liquid): 73.12 ± 0.03 mN/m
- surface tension liquid-gas (293.04 K, Liquid): 72.74 ± 0.03 mN/m
- surface tension liquid-gas (294.13 K, Liquid): 72.58 ± 0.03 mN/m
- surface tension liquid-gas (295.71 K, Liquid): 72.33 ± 0.03 mN/m
- surface tension liquid-gas (297.4 K, Liquid): 72.07 ± 0.03 mN/m
- surface tension liquid-gas (298.42 K, Liquid): 71.91 ± 0.03 mN/m
- surface tension liquid-gas (299.35 K, Liquid): 71.77 ± 0.03 mN/m
- surface tension liquid-gas (300.3 K, Liquid): 71.62 ± 0.03 mN/m
- surface tension liquid-gas (301.78 K, Liquid): 71.39 ± 0.03 mN/m
- surface tension liquid-gas (302.43 K, Liquid): 71.28 ± 0.03 mN/m
- surface tension liquid-gas (303.41 K, Liquid): 71.13 ± 0.03 mN/m
- surface tension liquid-gas (304.45 K, Liquid): 70.96 ± 0.03 mN/m
- surface tension liquid-gas (305.69 K, Liquid): 70.76 ± 0.03 mN/m
- surface tension liquid-gas (306.63 K, Liquid): 70.61 ± 0.03 mN/m
- surface tension liquid-gas (307.99 K, Liquid): 70.39 ± 0.03 mN/m
- surface tension liquid-gas (310.6 K, Liquid): 69.97 ± 0.03 mN/m
- surface tension liquid-gas (313.69 K, Liquid): 69.47 ± 0.03 mN/m
- surface tension liquid-gas (316.02 K, Liquid): 69.07 ± 0.03 mN/m
- surface tension liquid-gas (318.49 K, Liquid): 68.66 ± 0.03 mN/m
- surface tension liquid-gas (323.62 K, Liquid): 67.79 ± 0.03 mN/m
- surface tension liquid-gas (328.1 K, Liquid): 67.03 ± 0.03 mN/m
- surface tension liquid-gas (333.49 K, Liquid): 66.1 ± 0.03 mN/m
- surface tension liquid-gas (337.83 K, Liquid): 65.34 ± 0.03 mN/m
- surface tension liquid-gas (343.49 K, Liquid): 64.33 ± 0.03 mN/m
